Experimental data published in patent US20090105217A1, “2-PHENYL-5-AMINO-1,3,4-OXADIAZOLES AND THEIR USE AS NICOTINIC ACETYLCHOLINE RECEPTOR LIGANDS” (priority 2007, published 2009).
Where a name gives a salt, the structure may show the parent alone.

Target: T1, human α7 nAChR (Homo sapiens, UniProt P36544)
T1 construct: host or cells: GH4C1 cells (pituitary tumor, immortalized cell line)
Assay: α7 nAChR FLIPR (Fluorometric Imaging Plate Reader) Ca2+ assay, agonist EC50
Type: cell-based
Settings: for EC50: GH4C1 cells stably transfected with human α7 nAChR, Fluo-4 Ca2+ fluorescence, Examples 194 to 205 tested as the HCl salt, read-out: pEC50 value (negative logarithm of the agonist EC50) (converted); for activity in the alpha 7 assay: alpha 7 assay described in the Examples
Protocol: α7 nAChR FLIPR® (Fluorometric Imaging Plate Reader) Assay
Function of the heterologous expressed α7 nAChR was assessed by a FLIPR-Ca^2+ assay. Since nAChRs are non-selective cation channels with high permeability to Ca^2+, these studies were carried out by measuring changes of intracellular Ca^2+ concentration using the Ca^2+-chelating fluorescent dye Fluo-4 and FLIPR® (Fluorometric Imaging Plate Reader) technology.
GH4C1cells (pituitary tumor, immortalized cell line) stably transfected with human α7 nAChR (Biocat ID 96986), were thawed, suspended in growth medium (Ham's Nutrient Mixture F10—Ham's F10, Invitrogen 31550-023, 15% Horse Serum heat inactivated—Invitrogen 26050-047, 2.5% Foetal Bovine Serum—FBS, Gibco 10500-064, 200 μg/ml Hygromycin B—Invitrogen, 10687-010, 10 mg/L Phenol Red—Sigma, P 0290, 1 mM Glutamine—Invitrogen, 25030-024) and plated in 500 cm^2 Triple Flask.
Cells were then incubated at 30° C., 5% CO2 for 72 hours.
On the day of the experiment, cells were washed twice with Assay Buffer (AB) (145 mM NaCl, 5 mM KCl, 1 mM MgCl2, 2 mM CaCl2, 20 mM HEPES, 5.5 mM Glucose pH=7.3) containing 2.5 mM Probenecid. Changes in the intracellular Ca^2+ content of stably transfected cells were measured using the Ca^2+ chelating dye Fluo-4 (Tef Labs 0152) in conjunction with a FLIPR® (Molecular Devices). The cell permeant dye Fluo-4 was prepared to a concentration of 1 mM in 100% DMSO and 10% Pluronic acid. The dye was then diluted with AB to a final concentration of 2 μM and placed on the cells. After 45-60 minutes dye loading incubation at 37° C., the unincorporated dye was removed from the cells by washing (80 μL, 3 times) with AB, and a final volume of 30 μL/well of AB was left in each well.
Plates containing test compounds (dissolved in 100% DMSO at 2 mM and serially diluted with DMSO) were copied into “daughter” plates (1 μL/well dispensation). Just prior to starting the assay, the “daughter” plate was diluted with 50 μL/well of AB.
The plates were then placed in the FLIPR®, and cell fluorescence was determined before drug addition (30 seconds) and monitored (excitation 488 nm, emission 510-580 nm) immediately following exposure to compounds. Maximum fluorescence values were recorded and fitted for agonist EC50 calculations.
The results are expressed as pEC50 values. A pEC50 is the negative logarithm of the agonist EC50 calculation as determined in the α7 nAChR FLIPR® assay. […] Variations in pEC50 may arise between tests.

T1 sequence (P36544 23-502): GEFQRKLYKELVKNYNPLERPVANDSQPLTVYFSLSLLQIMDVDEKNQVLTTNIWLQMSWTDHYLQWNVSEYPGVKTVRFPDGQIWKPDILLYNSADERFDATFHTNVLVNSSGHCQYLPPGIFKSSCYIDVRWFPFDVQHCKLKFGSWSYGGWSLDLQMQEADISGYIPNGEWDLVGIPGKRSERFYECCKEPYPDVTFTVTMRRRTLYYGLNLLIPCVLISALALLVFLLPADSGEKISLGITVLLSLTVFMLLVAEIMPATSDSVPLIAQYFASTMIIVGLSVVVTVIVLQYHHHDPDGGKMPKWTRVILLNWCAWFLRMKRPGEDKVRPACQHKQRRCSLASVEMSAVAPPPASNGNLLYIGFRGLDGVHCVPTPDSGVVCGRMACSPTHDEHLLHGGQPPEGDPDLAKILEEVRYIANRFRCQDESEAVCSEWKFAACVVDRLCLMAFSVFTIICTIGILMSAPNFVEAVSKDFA

| Structure (SMILES) | EC50 [nM] | activity in the alpha 7 assay |
| --- | --- | --- |
| CCN(CC)CCCCNc1nnc(-c2ccc(NC(=O)c3ccccc3F)cc2Cl)o1 [Example 156, N-[3-chloro-4-(5-{[4-(diethylamino)butyl]amino}-1,3,4-oxadiazol-2-yl)phenyl]-2-fluorobenzamide] | ≤ 100 |  |
| O=C(Nc1ccc(-c2nnc(NCCCN3CCCCC3)o2)cc1)c1ccco1 [Example 185, N-[4-(5-{[3-(1-piperidinyl)propyl]amino}-1,3,4-oxadiazol-2-yl)phenyl]-2-furancarboxamide] | ≤ 1000 |  |
| O=C(Nc1ccc(-c2nnc(NCCCN3CCCCC3)o2)c(C(F)(F)F)c1)C1CCCCC1 [Example 61, N-[4-(5-{[3-(1-piperidinyl)propyl]amino}-1,3,4-oxadiazol-2-yl)-3-(trifluoromethyl)phenyl]cyclohexanecarboxamide] | ≤ 1000 |  |
| CCN(CC)CCCNc1nnc(-c2ccc(NC(=O)c3ccccc3F)cc2OC)o1 [Example 2, N-[4-(5-{[3-(Diethylamino)propyl]amino}-1,3,4-oxadiazol-2-yl)-3-(methyloxy)phenyl]-2-fluorobenzamidehydrochloride] | ≤ 1000 |  |
| O=C(Nc1ccc(-c2nnc(NCCCN3CCCCC3)o2)cc1)c1cccc(F)c1F [Example 16, 2,3-Difluoro-N-[4-(5-{[3-(1-piperidinyl)propyl]amino}-1,3,4-oxadiazol-2-yl)phenyl]benzamidehydrochloride] | ≤ 1000 |  |
| O=C(Nc1ccc(-c2nnc(NCCCCN3CCOCC3)o2)c(C(F)(F)F)c1)c1ccccc1 [Example 94, N-[4-(5-{[4-(4-morpholinyl)butyl]amino}-1,3,4-oxadiazol-2-yl)-3-(trifluoromethyl)phenyl]benzamide] | ≤ 100 |  |
| O=C(Nc1ccc(-c2nnc(NCCCCN3CCCC3)o2)c(C(F)(F)F)c1)C1CCCCC1 [Example 64, N-[4-(5-{[4-(1-pyrrolidinyl)butyl]amino}-1,3,4-oxadiazol-2-yl)-3-(trifiuoromethyl)phenyl]cyclohexanecarboxamide] | ≤ 1000 |  |
| COc1cc(NC(=O)c2ccccc2)ccc1-c1nnc(NCCCN2CCN3CCC2CC3)o1 [Example 122, N-[4-(5-{[3-(1,4-diazabicyclo[3.2.2]non-4-yl)propyl]amino}-1,3,4-oxadiazol-2-yl)-3-(methyloxy)phenyl]benzamide] | ≤ 100 |  |
| CCN(CC)CCCCNc1nnc(-c2ccc(NC(=O)c3ccccc3)cc2C(F)(F)F)o1 [Example 96, N-[4-(5-{[4-(diethylamino)butyl]amino}-1,3,4-oxadiazol-2-yl)-3-(trifluoromethyl)phenyl]benzamide] | ≤ 100 |  |
| O=C(Nc1ccc(-c2nnc(NCCCN3CCCC3)o2)c(C(F)(F)F)c1)c1ccccc1F [Example 84, 2-fluoro-N-[4-(5-{[3-(1-pyrrolidinyl)propyl]amino}-1,3,4-oxadiazol-2-yl)-3-(trifluoromethyl)phenyl]benzamide] | ≤ 1000 |  |
| CCN(CC)CCCCNc1nnc(-c2ccc(NC(=O)C3CCCCC3)cc2)o1 [Example 150, N-[4-(5-{[4-(diethylamino)butyl]amino}-1,3,4-oxadiazol-2-yl)phenyl]cyclohexanecarboxamide] | ≤ 1000 |  |
| O=C(Nc1ccc(-c2nnc(NCCCN3CCOCC3)o2)c(Cl)c1)c1ccccc1 [Example 101, N-[3-chloro-4-(5-{[3-(4-morpholinyl)propyl]amino}-1,3,4-oxadiazol-2-yl)phenyl]benzamide] | ≤ 1000 |  |
| O=C(Nc1ccc(-c2nnc(NCCCCN3CCCCC3)o2)c(F)c1)c1ccccc1 [Example 114, N-[3-fluoro-4-(5-{[4-(1-piperidinyl)butyl]amino}-1,3,4-oxadiazol-2-yl)phenyl]benzamide] | ≤ 100 |  |
| CCCN(CCC)CCCNc1nnc(-c2ccc(NC(=O)c3ccccc3F)cc2)o1 [N-[4-(5-{[3-(dipropylamino)propyl]amino}-1,3,4-oxadiazol-2-yl)phenyl]-2-fluorobenzamide] |  | not found to have activity |
| CCc1cc(NC(=O)c2ccccc2F)ccc1-c1nnc(NCCCN2CCOCC2)o1 [Example 167, N-[3-ethyl-4-(5-{[3-(4-morpholinyl)propyl]amino}-1,3,4-oxadiazol-2-yl)phenyl]-2-fluorobenzamide] | ≤ 1000 |  |
| O=C(Nc1ccc(-c2nnc(NCCCN3CCCC3)o2)c(Cl)c1)c1ccccc1 [Example 99] | ≤ 1000 |  |
| CCN(CC)CCCNc1nnc(-c2ccc(NC(=O)c3ccc(OC)cc3)cc2OC)o1 [Example 225, N-[4-(5-{[3-(diethylamino)propyl]amino}-1,3,4-oxadiazol-2-yl)-3-(methyloxy)phenyl]-4-(methyloxy)benzamidetrifluoroacetate] | ≤ 1000 |  |
| Cc1ccc(C(=O)Nc2ccc(-c3nnc(NCCCN4CCCCC4)o3)cc2)cc1 [Example 181, 4-methyl-N-[4-(5-{[3-(1-piperidinyl)propyl]amino}-1,3,4-oxadiazol-2-yl)phenyl]benzamide] | ≤ 1000 |  |
| O=C(Nc1ccc(-c2nnc(NCCCN3CCCC3)o2)cc1)c1ccccc1 [Example 69, N-[4-(5-{[3-(1-pyrrolidinyl)propyl]amino}-1,3,4-oxadiazol-2-yl)phenyl]benzamide] | ≤ 1000 |  |
| CN(CCCNc1nnc(-c2ccc(NC(=O)c3ccccc3F)cc2)o1)C1CCCC1 [Example 137, N-{4-[5-({3-[cyclopentyl(methyl)amino]propyl}amino)-1,3,4-oxadiazol-2-yl]phenyl}-2-fluorobenzamide] | ≤ 1000 |  |
| CCCC(=O)Nc1ccc(-c2nnc(NCCCN3CCOCC3)o2)c(OC)c1 [Example 199, N-[3-(Methyloxy)-4-(5-{[3-(4-morpholinyl)propyl]amino}-1,3,4-oxadiazol-2-yl)phenyl]butanamide] | ≤ 1000 |  |
| Cc1cc(C(=O)Nc2ccc(-c3nnc(NCCCN4CCCCC4)o3)cc2)no1 [Example 183, 5-methyl-N-[4-(5-{[3-(1-piperidinyl)propyl]amino}-1,3,4-oxadiazol-2-yl)phenyl]-3-isoxazolecarboxamide] | ≤ 1000 |  |
| CCc1cc(NC(=O)c2ccccc2F)ccc1-c1nnc(NCCCN2CCN3CCC2CC3)o1 [Example 169, N-[4-(5-{[3-(1,4-diazabicyclo[3.2.2]non-4-yl)propyl]amino}-1,3,4-oxadiazol-2-yl)-3-ethylphenyl]-2-fluorobenzamide] | ≤ 100 |  |
| O=C(Nc1ccc(-c2nnc(NCCCN3CCCC(F)(F)C3)o2)cc1)c1ccccc1F [N-[4-(5-{[3-(3,3-difluoro-1-piperidinyl)propyl]amino}-1,3,4-oxadiazol-2-yl)phenyl]-2-fluorobenzamide] |  | not found to have activity |
| O=C(Nc1ccc(-c2nnc(NCCCCN3CCOCC3)o2)c(C(F)(F)F)c1)c1ccccc1F [Example 87, 2-fluoro-N-[4-(5-{[4-(4-morpholinyl)butyl]amino}-1,3,4-oxadiazol-2-yl)-3-(trifluoromethyl)phenyl]benzamide] | ≤ 1000 |  |
| CCN(CC)CCCCNc1nnc(-c2ccc(NC(=O)c3ccccc3)cc2OC)o1 [Example 75, N-[4-(5-{[4-(diethylamino)butyl]amino}-1,3,4-oxadiazol-2-yl)-3-(methyloxy)phenyl]benzamide] | ≤ 100 |  |
| O=C(Nc1ccc(-c2nnc(NCCCN3CCCCC3)o2)cc1)c1ccccn1 [Example 17, N-[4-(5-{[3-(1-Piperidinyl)propyl]amino}-1,3,4-oxadiazol-2-yl)phenyl]-2-pyridinecarboxamidehydrochloride] | ≤ 1000 |  |
| CCN(CC)CCCNc1nnc(-c2ccc(NC(=O)c3ccccc3F)cc2Cl)o1 [Example 155, N-[3-chloro-4-(5-{[3-(diethylamino)propyl]amino}-1,3,4-oxadiazol-2-yl)phenyl]-2-fluorobenzamide] | ≤ 1000 |  |
| COc1cc(NC(=O)c2ccccc2)ccc1-c1nnc(NCCCCN2CCCC2)o1 [Example 76, N-[3-(methyloxy)-4-(5-{[4-(1-pyrrolidinyl)butyl]amino}-1,3,4-oxadiazol-2-yl)phenyl]benzamide] | ≤ 100 |  |
| COc1cc(NC(=O)c2ccccc2F)ccc1-c1nnc(NCCCN2CCCC2)o1 [Example 126, 2-fluoro-N-[3-(methyloxy)-4-(5-{[3-(1-pyrrolidinyl)propyl]amino}-1,3,4-oxadiazol-2-yl)phenyl]benzamide] | ≤ 1000 |  |
